9 compounds from DBAASP can be followed below.

In brackets after ≈: the same amount, converted by molar mass.

Test systems include Micrococcus luteus; Saccharomyces cerevisiae; Staphylococcus aureus; Escherichia coli; Bacillus cereus; Escherichia coli JM109; Candida albicans; Bacillus subtilis; Klebsiella pneumoniae.
What all share (test): ≥ marks a high value that may be exact or a test limit, other limits are often not marked, values filed in µg/mL are converted to µM
For assay [1], the system named is Staphylococcus aureus ATCC 25923.
For assay [2], the system named is Pseudomonas aeruginosa ATCC 15692.
Assay [3] concerns Escherichia coli ATCC 25922.
Assay [4] concerns Acinetobacter baumannii NM35.
Assay [5] has as its system Acinetobacter baumannii NM8.
The test system of assay [6] is Candida albicans ATCC 90028.
Assay [7] deals with Escherichia coli ATCC 25726.
Assay [8] relates to Streptococcus mutans UA159.
Assay [9] relates to Streptococcus gordonii ATCC 10558.
The test system of assay [10] is Streptococcus sanguinis ATCC 49295.
Assay [11] deals with Streptococcus mutans GS-5.

The MIC is the lowest concentration found to suppress growth. Read a low MIC as inhibition by little substance. As to `CC[C@H](C)[C@H](NC(=O)[C@@H](N)Cc1ccccc1)C(=O)NCC(=O)N[C@@H](C)C(=O)N[C@@H](CC(C)C)C(=O)N[C@@H](CC(C)C)C(=O)N[C@@H](CCCN=C(N)N)C(=O)N1CCC[C@H]1C(=O)N[C@@H](C)C(=O)N[C@@H](CC(C)C)C(=O)N[C@@H](CCCCN)C(=O)N[C@@H](CC(C)C)C(=O)N[C@@H](CC(C)C)C(=O)N[C@@H](C)C(=O)NCC(=O)N[C@@H](CCCCN)C(N)=O` [FIGALLRPALKLLAGK], the MIC was 16 µM (≈ 26.9 µg/mL) in assay [1]; 4 µM (≈ 6.72 µg/mL) in the assay with Micrococcus luteus; at least 128 µM against Saccharomyces cerevisiae; at least 256 µM in assay [2]; 32 µM (≈ 53.8 µg/mL) in [3].

As for `CC(C)C[C@H](NC(=O)[C@@H](N)Cc1ccccc1)C(=O)NCC(=O)N[C@@H](CCCCN)C(=O)N[C@H](C(=O)N[C@@H](Cc1ccccc1)C(=O)N[C@@H](CCCCN)C(=O)N[C@@H](CCCCN)C(=O)N[C@H](C(=O)N[C@@H](CO)C(=O)N[C@@H](CCCCN)C(=O)N[C@H](C(=O)N[C@@H](Cc1ccccc1)C(=O)N1CCC[C@H]1C(=O)N[C@@H](C)C(=O)N[C@H](C(=O)N[C@@H](Cc1ccccc1)C(=O)NCC(=O)N[C@@H](CCCCN)C(=O)N[C@H](C(=O)O)C(C)C)C(C)C)C(C)C)C(C)C)C(C)C` [FLGKVFKKVSKVFPAVFGKV], the results for the MIC against Staphylococcus aureus, in the assay on Escherichia coli and against Bacillus cereus were above 57.5 µM, 14.4 µM (≈ 32 µg/mL) and at least 57.5 µM, respectively.

Regarding `CC[C@H](C)[C@H](NC(=O)CNC(=O)[C@H](CCCCN)NC(=O)[C@@H](NC(=O)[C@H](CC(C)C)NC(=O)[C@H](CO)NC(=O)CNC(=O)[C@H](CC(C)C)NC(=O)CNC(=O)[C@H](CCCCN)NC(=O)[C@H](CCCCN)NC(=O)[C@H](Cc1ccccc1)NC(=O)[C@@H](NC(=O)[C@H](CCCCN)NC(=O)[C@H](CCCCN)NC(=O)[C@H](CC(C)C)NC(=O)CN)[C@@H](C)CC)C(C)C)C(=O)N[C@@H](C)C(=O)N[C@@H](C)C(=O)N[C@@H](Cc1cnc[nH]1)C(=O)N[C@H](C(=O)N[C@@H](C)C(=O)N[C@@H](CO)C(N)=O)C(C)C` [GLKKIFKKGLGSLVKGIAAHVAS], the minimal inhibitory concentration (MIC) in assay [4] is 2.5 µM (≈ 5.8 µg/mL); in assay [5], 5 µM (≈ 11.6 µg/mL); in assay [1], 250 µM (≈ 580 µg/mL); in assay [6] it was 10 µM (≈ 23.2 µg/mL); in [7], 10 µM (≈ 23.2 µg/mL).

For the compound `CC(C)C[C@H](NC(=O)[C@H](CCCN=C(N)N)NC(=O)[C@H](Cc1ccccc1)NC(=O)[C@H](Cc1ccccc1)NC(=O)[C@@H](NC(=O)[C@H](CO)NC(=O)[C@@H](N)CC(C)C)[C@@H](C)O)C(=O)N[C@@H](Cc1ccccc1)C(=O)N[C@@H](CC(N)=O)C(=O)N[C@@H](CCCN=C(N)N)C(=O)N[C@@H](CO)C(=O)N[C@@H](Cc1ccccc1)C(=O)N[C@H](C(=O)N[C@@H](CCC(N)=O)C(=O)O)[C@@H](C)O` [LSTFFRLFNRSFTQ], the MIC in [8], in [9], in [10] and in [11] was at least 145 µM throughout.

`CC[C@H](C)[C@H](NC(=O)[C@H](Cc1ccccc1)NC(=O)[C@H](CCCN=C(N)N)NC(=O)[C@H](CO)NC(=O)[C@@H](NC(=O)[C@H](C)NC(=O)[C@H](C)NC(=O)[C@H](CCCCN)NC(=O)[C@@H](NC(=O)[C@H](CS)NC(=O)[C@@H](NC(=O)[C@@H]1CCCN1C(=O)[C@H](CO)NC(=O)[C@H](Cc1ccc(O)cc1)NC(=O)[C@@H](N)CC(C)C)[C@@H](C)O)C(C)C)C(C)C)C(=O)NCC(=O)N[C@@H](CCCCN)C(=O)N[C@H](C(=O)N[C@@H](CO)C(=O)N[C@@H](C)C(=O)O)C(C)C` [LYSPTCVKAAVSRFIGKVSA]: the minimal inhibitory concentration (MIC) against Escherichia coli is above 122 µM; against Bacillus cereus, at least 122 µM.

On to `CC[C@H](C)[C@H](NC(=O)[C@H](CCCCN)NC(=O)[C@H](CCCCN)NC(=O)[C@H](Cc1ccccc1)NC(=O)[C@@H](NC(=O)[C@H](CCCCN)NC(=O)[C@H](Cc1c[nH]c2ccccc12)NC(=O)[C@@H](N)CCCN=C(N)N)[C@@H](C)CC)C(=O)N[C@@H](CCC(=O)O)C(=O)N[C@@H](CCCCN)C(=O)N[C@@H](CCSC)C(=O)NCC(=O)NCC(=O)N[C@@H](CO)C(=O)N[C@@H](Cc1ccc(O)cc1)C(=O)N[C@@H](CS)C(=O)N[C@@H](CC(N)=O)C(=O)N[C@@H](CCCN=C(N)N)C(=O)N[C@@H](CCCN=C(N)N)C(=O)N[C@H](C(=O)NCC(=O)N[C@@H](CCCCN)C(=O)N[C@@H](CS)C(=O)N[C@@H](CCC(N)=O)C(=O)N[C@@H](CCCN=C(N)N)C(=O)N[C@@H](CCSC)C(=O)O)[C@@H](C)O` [RWKIFKKIEKMGGSYCNRRTGKCQRM], for which the MIC against Escherichia coli JM109 came to 28.3 µM (≈ 90.7 µg/mL); in the assay on Candida albicans, 50 µM (≈ 160 µg/mL); against Bacillus subtilis, 10 µM (≈ 32.1 µg/mL); against Saccharomyces cerevisiae, 28.3 µM (≈ 90.7 µg/mL); in the assay on Klebsiella pneumoniae, 80 µM (≈ 256 µg/mL).

Regarding `CC(C)C[C@H](NC(=O)[C@H](CCCN=C(N)N)NC(=O)[C@H](Cc1ccccc1)NC(=O)[C@H](Cc1ccccc1)NC(=O)[C@@H](NC(=O)[C@@H](N)CO)[C@@H](C)O)C(=O)N[C@@H](Cc1ccccc1)C(=O)N[C@@H](CC(N)=O)C(=O)N[C@@H](CCCN=C(N)N)C(=O)N[C@@H](CO)C(=O)N[C@@H](Cc1ccccc1)C(=O)N[C@H](C(=O)N[C@@H](CCC(N)=O)C(=O)NCC(=O)N[C@@H](CCCN=C(N)N)C(=O)N[C@@H](CCCN=C(N)N)C(=O)N[C@@H](CCCN=C(N)N)C(=O)N[C@@H](CCCN=C(N)N)C(=O)N[C@@H](CO)C(=O)N[C@H](C(=O)N[C@@H](CCC(N)=O)C(=O)N[C@@H](Cc1c[nH]c2ccccc12)C(=O)N[C@@H](CS)C(=O)N[C@@H](C)C(=O)O)C(C)C)[C@@H](C)O` [STFFRLFNRSFTQGRRRRSVQWCA], the MIC is 3.55 µM (≈ 10.7 µg/mL) in assay [8], 16.6 µM (≈ 49.8 µg/mL) in assay [9], at least 33.1 µM in assay [10] and 4.43 µM (≈ 13.3 µg/mL) in [11].

On to `CC(C)C[C@H](NC(=O)[C@H](CCCN=C(N)N)NC(=O)[C@H](Cc1ccccc1)NC(=O)[C@H](Cc1ccccc1)NC(=O)[C@@H](NC(=O)[C@@H](N)CO)[C@@H](C)O)C(=O)N[C@@H](Cc1ccccc1)C(=O)N[C@@H](CC(N)=O)C(=O)N[C@@H](CCCN=C(N)N)C(=O)N[C@@H](CO)C(=O)N[C@@H](Cc1ccccc1)C(=O)N[C@H](C(=O)N[C@@H](CCC(N)=O)C(=O)O)[C@@H](C)O` [STFFRLFNRSFTQ], for which the MIC in [8], in assay [9], in assay [10] and in assay [11] was at least 155 µM throughout.

In the case of `CC(C)C[C@H](NC(=O)[C@H](CCCN=C(N)N)NC(=O)[C@H](Cc1ccccc1)NC(=O)[C@H](Cc1ccccc1)NC(=O)[C@@H](N)[C@@H](C)O)C(=O)N[C@@H](Cc1ccccc1)C(=O)N[C@@H](CC(N)=O)C(=O)N[C@@H](CCCN=C(N)N)C(=O)NCC(=O)N[C@@H](CCCN=C(N)N)C(=O)N[C@@H](CCCN=C(N)N)C(=O)N[C@@H](CCCN=C(N)N)C(=O)N[C@@H](CCCN=C(N)N)C(=O)N[C@@H](CO)C(=O)N[C@H](C(=O)N[C@@H](CCC(N)=O)C(=O)N[C@@H](Cc1c[nH]c2ccccc12)C(=O)N[C@@H](CS)C(=O)N[C@@H](C)C(=O)O)C(C)C` [TFFRLFNRGRRRRSVQWCA], the MIC is 4.34 µM (≈ 10.7 µg/mL) in assay [8], 20.3 µM (≈ 49.8 µg/mL) in assay [9], at least 40.5 µM in assay [10] and 5.06 µM (≈ 12.4 µg/mL) in assay [11].
